Experimental data reported in patent US20050155093A1, “Rabbit nuclear cloning method and uses thereof” (Institute National de Ia Recherche Agronomique, priority 2002, published 2005).
Several values for one entry are separate records, joined by “and”; a condition that tells them apart may be missing. Identical values can stand only once.

Tested on: rabbit MII oocytes
Assay: In vitro development after parthenogenic activation of rabbit oocytes (electrical activation, then incubation in M199 with drug)
Assay type: cell-based
Protocol: Metaphase II (MII) oocytes are collected from superovulated “New Zealand” rabbits by injections of FSH hormones followed by an injection of HCG hormone, mated with a vasectomized male 16 hours after injection of human choriogonadotrophin (hCG). The oocytes are then incubated in 0.5% hyaluronidase for 15 min (Sigma) in order to remove the cumulus cells by gentle pipeting. For the nuclear transfer, the oocytes are enucleated as previously described (Adenot et al., 1997). Simultaneously, cumulus cells are collected either from rabbits of “New Zealand” breed or from F1 rabbits obtained by a cross between rabbits of “New Zealand” breed crossed with rabbits of “Fauves de Bourgogne” breed or “New Zealand” transgenic F1 female rabbits containing a DNA construct with a sequence encoding the enhanced green fluorescence protein (eGFP) placed under the control of an EF1 (“elongation factor 1”) promoter or of an HMG promoter. The eGFP fluorescence and the PCR amplification reactions are used as markers for the cumulus donor cells. The cumulus cells are then stored at 38° C. in PBS without calcium or magnesium supplemented with 1% PVP 40 000 (polyvinylpyrrolidone (PVP)) which are then used as nucleus donor cells.
To reconstruct the embryos by nuclear transfer (NT), individual cumulus cells are inserted by micromanipulation into the zona pellucida of the enucleated oocytes. The embryos obtained by nuclear transfer (NT embryos) and the MII oocytes are activated in the following manner: 2 phases of electrical stimulations are applied 1 hour apart with a Grass stimulator (3 pulses of continuous current of 3.2 kV×cm^−1 for 20 μs each in 0.3 M mannitol containing 0.1 mM of Ca^2+ and of Mg^2+), the first phase inducing the fusion of the oocyte and of the cumulus cell. The reconstituted embryos are maintained for one hour in a culture medium at 38° C. […] After extensive washing to remove the drugs, the cells are again placed in culture in a microdrop of 50 μl of B2 medium supplemented with 2.5% fetal calf serum (FCS) in mineral oil (Sigma M8410) at 38° C. under an atmosphere saturated with 5% CO2. This activation protocol is applied to the NT embryos about 18 to 20 hours after mating of the donors.
The microtubular organization and the chromatin in the NT embryos at the 1 cell stage are observed as previously described (Adenot et al., 1997), except that the fixing state lasts for 20 min at 37° C. and that the mounting medium is Vectashield (Vector Laboratories). The rates of cleavage of the NT embryos and of the parthenotes are evaluated from 21 hours to 23 hours after electrostimulation. The rates of development up to the blastocyst stage are estimated after an in vitro culture of 3 to 4 days. For the evaluation of the number of cells, the embryos are fixed as previously described, and then stained with Hoechst […] at 1 μg/ml and then mounted on slides with wells in Vectashield and analyzed by epifluorescence. The controls are blastocysts which either developed in vitro from a 1 cell embryo collected from a superovulated rabbit or which developed in vivo from nonsuperovulated females crossed with a male and then sacrificed 3 or 4 days later.

[1] = 30 min incubation in M199 + drug after electrical activation
[2] = 1 h incubation in M199 + drug after electrical activation
[3] = 1 h incubation in M199 + drug after electrical activation, cleavage at 2 cell stage
[4] = 4 h incubation in M199 + drug after electrical activation

| Compound | Number of blastocysts [1] | Number of cleaved oocytes [1] | blastocysts (%) [1] [%] | cleaved oocytes (%) [1] [%] | Number of blastocysts [2] | Number of cleaved oocytes [2] | blastocysts (%) [2] [%] | cleaved oocytes (%) [3] | Number of blastocysts [4] | Number of cleaved oocytes [4] | blastocysts (%) [4] [%] | cleaved oocytes (%) [4] [%] |
| --- | --- | --- | --- | --- | --- | --- | --- | --- | --- | --- | --- | --- |
| CN(C)c1ncnc2nc[nH]c12 [6-DMAP, 6-dimethylaminopurine] | 32 | 43 | 66.7 | 89.6 | 38 and 35 | 46 and 47 | 72.9 | 96% and 95.8% and 97.9% |  |  |  |  |
| C[C@@H]1C[C@@H]([C@H](O)CC2CC(=O)NC(=O)C2)C(=O)[C@@H](C)C1 [CHX, cycloheximide] | 19 | 41 | 39.6 | 85.4 | 24 | 45 | 50 | 94% and 93.7% | 25 | 47 | 52.1 | 97.9 |
